# Source: article PMC12679610, “Impact of supersaturation on growth, critical radius, and size in neomycin nanoparticle crystallization using anti-solvent and CTAB” (RSC Advances, 2025)
# Read-outs that look alike come from different tables or passages of the source.
# Experiments:
# [1] = Induction time measurement by in situ turbidimeter (antisolvent crystallization); type: physicochemical; conditions: CTAB 0.6 g kg^−1, 25 °C
# Description: In this section, the method for the synthesis of neomycin nanoparticles is explained in detail. First, an exact amount of neomycin powder (purity ≥ 95%) was weighed using a digital analytical balance (accuracy: […]) based on the desired equilibrium concentration. The weighed neomycin was then added to 10 g of double-distilled water (25 °C). To ensure complete dissolution, the mixture was homogenized using a magnetic stirrer at controlled speeds of 300, 350, 400, and 450 rpm for 20 minutes. This range of stirring speeds was selected to investigate the effect of shear force on solution homogeneity. After confirming the homogeneity of the neomycin solution, a predetermined amount of CTAB surfactant with a concentration established from prior studies was added to the beaker. To achieve optimal mixing, the stirring system was activated at a constant speed between 300 and 450 rpm, and the mixing process continued until equilibrium was reached. The solution temperature was continuously monitored using a calibrated digital thermometer (±0.1 °C). A turbidity sensor was installed 2 cm from the crystallizer wall to measure changes in turbidity. Pure acetone (HPLC grade) was added dropwise (0.02 mL per drop) at 5-minute intervals. The first signs of physical change (e.g., localized cloudiness) were recorded as the initial saturation point. Acetone addition continued until stable turbidity (supersaturation) was achieved under isothermal conditions (25 °C). The induction time (the interval between initial saturation and supersaturation), as clearly depicted in Fig. 1, Section C (the induction time segment of steps 1 to 4), was measure using a synchronized turbidimeter and reaction timer data. To ensure reproducibility, the entire process was repeated in four independent trials under controlled conditions (constant temperature, humidity, and lighting).
# Induction time represents a key parameter in crystallization processes, being predominantly influenced by three factors of supersaturation, temperature, and agitation rate.[29,32] This parameter characterizes the time interval between the onset of initial physical changes (saturated state) and the complete formation of a turbid phase (supersaturated state) within the system. Investigations indicate that both the optimal agitation speed and the application of dynamic shock have a significant influence on the system's supersaturation level.[29,33,35,36] A sudden increase in agitation rate initially induces localized supersaturation reduction through turbulence generation at the interface between unstable and metastable zones. […] CTAB modulates the process by reducing surface energy and stabilizing subcritical clusters, which shortens the nucleation time and broadened the metastable zone. Agitation dynamics initially cause a temporary decrease in localized supersaturation (dynamic shock), followed by a stabilization phase that enables controlled crystal growth.
# Methodologically, induction time was measured using both visual observation and in situ turbidimetry.
# [2] = set-up: method as in PMID 40028493; conditions: PVP as stabilizer, cited from earlier work
# [3] = Interfacial energy from ln tind versus 1/T^3(ln S)^2 plot; type: physicochemical; conditions: CTAB 0.6 g kg^−1, 25 °C
# Description: Interfacial energy at the solid–liquid interface, can typically be regarded as an intrinsic property of the system.[100] It is indeed a key parameter strongly influenced by the solvent composition and the presence of surfactants such as CTAB.[29,101] In this study, the effect of CTAB at a constant concentration of 0.6 g kg^−1 on the interfacial energy of the crystallization system of neomycin at various concentrations (20, 30, 40, and 50 g kg^−1) was investigated at a temperature of 25 °C. Key system parameters included the density of neomycin (ρ = 640 kg m^−3), measured using the volume displacement method; the shape factor (f = 0.058)[16,29] and the molar mass (M = 908.88 g mol^−1). […] At various concentrations of neomycin (20, 30, 40, and 50 g kg^−1), a comparison was made between the system stabilized with CTAB and previous studies that utilized PVP as a stabilizer.[29] […] This distinction can be attributed to a significant reduction in surface energy in the presence of CTAB, as well as distinct molecular interactions between neomycin and the cationic surfactant, which subsequently influenced solubility and nucleation behavior.[102] […] The proposed mechanism for this observation includes the effective adsorption of CTAB onto nanoparticle surfaces, alterations in the local solubility of neomycin, and the formation of stable electrical double layers at the interface.[103] Furthermore, increased agitation enhanced mass transfer, improved surfactant distribution, and promoted the formation of stable nuclei, ultimately leading to a significant reduction in surface energy and effective suppression of nanoparticle aggregation.[104]
# [4] = initial neomycin 20 g kg solvent^−1
# [5] = initial neomycin 30 g kg solvent^−1
smiles,measurement,setting,value
NC[C@@H]1O[C@H](O[C@H]2[C@@H](O)[C@H](O[C@@H]3[C@@H](O)[C@H](N)C[C@H](N)[C@H]3O[C@H]3O[C@H](CN)[C@@H](O)[C@H](O)[C@H]3N)O[C@@H]2CO)[C@H](N)[C@@H](O)[C@@H]1O.O=S(=O)(O)O [neomycin sulfate],Induction time,"[1]; 300 rpm, initial neomycin 20 g kg^−1, S 1.18",112 s
same,Induction time,"[1]; 300 rpm, initial neomycin 20 g kg^−1, S 1.33",91 s
same,Induction time,"[1]; 300 rpm, initial neomycin 20 g kg^−1, S 1.45",86 s
same,Induction time,"[1]; 300 rpm, initial neomycin 20 g kg^−1, S 1.66",79 s
same,Induction time,"[1]; 350 rpm, initial neomycin 30 g kg^−1, S 1.2",101 s
same,Induction time,"[1]; 350 rpm, initial neomycin 30 g kg^−1, S 1.25",94 s
same,Induction time,"[1]; 350 rpm, initial neomycin 30 g kg^−1, S 1.28",89 s
same,Induction time,"[1]; 350 rpm, initial neomycin 30 g kg^−1, S 1.43",81 s
same,Induction time,"[1]; 350 rpm, initial neomycin 30 g kg^−1, S 1.67",74 s
same,Induction time,"[1]; 400 rpm, initial neomycin 40 g kg^−1, S 1.29",99 s
same,Induction time,"[1]; 400 rpm, initial neomycin 40 g kg^−1, S 1.379",96 s
same,Induction time,"[1]; 400 rpm, initial neomycin 40 g kg^−1, S 1.48",83 s
same,Induction time,"[1]; 400 rpm, initial neomycin 40 g kg^−1, S 1.66",76 s
same,Induction time,"[1]; 400 rpm, initial neomycin 40 g kg^−1, S 1.9",72 s
same,Induction time,"[1]; 450 rpm, initial neomycin 50 g kg^−1, S 1.351",90 s
same,Induction time,"[1]; 450 rpm, initial neomycin 50 g kg^−1, S 1.408",84 s
same,Induction time,"[1]; 450 rpm, initial neomycin 50 g kg^−1, S 1.47",77 s
same,Induction time,"[1]; 450 rpm, initial neomycin 50 g kg^−1, S 1.666",70 s
same,Induction time,"[1]; 450 rpm, initial neomycin 50 g kg^−1, S 1.785",64 s
same,"Interfacial energy, Motahari et al.",[2]; [4],7.68 mJ m^−2
same,"Interfacial energy, Motahari et al.",[2]; [5],8.056 mJ m^−2
same,Interfacial energy this work,[3]; [4],1.33 mJ m^−2
same,Interfacial energy this work,[3]; [5],1.41 mJ m^−2
same,Interfacial energy this work,[3]; initial neomycin 40 g kg solvent^−1,1.9 mJ m^−2
same,Interfacial energy this work,[3]; initial neomycin 50 g kg solvent^−1,2.14 mJ m^−2
